Experimental data as given in BindingDB's records for doi:10.1021/jm00403a001 (Smith Kline & French Laboratories, 1988).

Molecular target: Vasopressin V2 receptor (Canis familiaris)
Assay: In vitro antagonist activity was measured by inhibition of vasopressin-stimulated adenylate cyclase in renal medullary preparation in dog

## CCOc1ccc(C[C@H]2NC(=O)CC3(CCCCC3)CCC[C@@H](C(=O)N3CCC[C@H]3C(=O)N[C@@H](CCCN=C(N)N)C(N)=O)NC(=O)[C@H](CC(N)=O)NC(=O)[C@H](C(C)C)NC(=O)[C@H](Cc3ccccc3)NC2=O)cc1 [1-[13-Benzyl-19-carbamoylmethyl-10-(4-ethoxy-benzyl)-16-isopropyl-8,11,14,17,20-pentaoxo-9,12,15,18,21-pentaaza-spiro[5.19]pentacosane-22-carbonyl]-pyrrolidine-2-carboxylic acid (1-carbamoyl-4-guanidino-butyl)-amide]
  Ki: 1000 µM
